Some results are limits rather than exact numbers.

The target in data set [1] is T1, Leukotriene A-4 hydrolase (Homo sapiens, UniProt P09960).
T1 sequence (P09960 whole entry): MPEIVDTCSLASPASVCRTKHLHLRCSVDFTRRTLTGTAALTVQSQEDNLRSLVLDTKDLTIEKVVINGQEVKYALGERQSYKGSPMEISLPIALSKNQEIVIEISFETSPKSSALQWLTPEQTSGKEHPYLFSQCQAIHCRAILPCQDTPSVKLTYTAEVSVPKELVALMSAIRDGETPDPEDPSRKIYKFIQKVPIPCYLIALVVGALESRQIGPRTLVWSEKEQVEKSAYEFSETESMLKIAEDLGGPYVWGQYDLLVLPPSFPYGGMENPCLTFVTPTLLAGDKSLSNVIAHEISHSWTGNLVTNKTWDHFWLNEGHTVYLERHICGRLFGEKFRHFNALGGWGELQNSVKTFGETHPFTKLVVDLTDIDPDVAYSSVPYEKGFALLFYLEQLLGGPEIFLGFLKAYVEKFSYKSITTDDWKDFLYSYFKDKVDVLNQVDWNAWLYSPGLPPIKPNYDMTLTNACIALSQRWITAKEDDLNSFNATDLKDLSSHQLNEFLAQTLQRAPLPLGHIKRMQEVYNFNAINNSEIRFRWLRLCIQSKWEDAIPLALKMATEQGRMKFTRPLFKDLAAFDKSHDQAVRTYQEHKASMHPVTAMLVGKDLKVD

The target of data set [2] is T1, Leukotriene A-4 hydrolase. This is another data set of the same source.
Data set [3] in a line: Half life in iv dosed rat. The format is ADME, organism-based. The note with it: in vivo.
A short description of data set [4]: Clearance in iv dosed rat. The data set is classed as ADME, organism-based. The note with it: in vivo.
Data set [5] can be described thus: Oral bioavailability in rat. The format is ADME, organism-based. The note with it: in vivo.
The nature of data set [6]: Metabolic stability in rat microsomes assessed as compound remaining after 1 hr. The note with it: read-out: Stability. The format is ADME, Microsome.
For data set [7], the target named is T1, Leukotriene A-4 hydrolase. This is another data set of the same source.

As usually defined, the IC50 is the concentration that inhibits the measured activity by half. A higher IC50 goes with lower potency. Consider `CN(CCCN(C)Cc1ccc(C(=O)O)cc1)CC(=O)Nc1ccc(OCC(O)c2ccccc2)cc1` (stereo not given), for which the results for the IC50 in data set [1] and in data set [2] were 19 nM and 210 nM, respectively.

`CN(CCCN(C)Cc1ccc(C(=O)O)cc1)CC(=O)Nc1ccc(Oc2ccc(-c3ncco3)cc2)cc1`: the values for the IC50 in data set [1] and in data set [2] were 5 nM and 60 nM, respectively.

In the case of `O=C(CNCCCNCc1ccc(C(=O)O)cc1)Nc1ccc(Oc2ccccc2)cc1`, the figures for the IC50 in data set [1] and in data set [2] were 370 nM and over 1000 nM, respectively.

Turning to `CN(CCCN(C)Cc1ccc(C(=O)O)cc1)CC(=O)Nc1ccc(Oc2ccc(Cl)cc2)cc1`, the IC50 came to 17 nM in data set [1] and 90 nM in data set [2].

As for `CN(Cc1ccc(C(=O)O)cc1)C1CCCN(CC(=O)Nc2ccc(Oc3ccccc3)cc2)CC1` (stereo not given), the IC50 is 140 nM in data set [1] and 220 nM in data set [2].

On to `CN(CCCN(C)CC1CCC(C(=O)O)CC1)CC(=O)Nc1ccc(Oc2ccccc2)cc1` (stereo not given), for which the IC50 turned out to be 25 nM in data set [1] and 430 nM in data set [2].

Regarding `CN(CCCN(C)Cc1ccc(C(=O)O)cc1F)CC(=O)Nc1ccc(Oc2ccccc2)cc1`, the IC50 stood at 7 nM in data set [1] and 160 nM in data set [2].

Regarding `CN(CCCN(C)CC(=O)Nc1ccc(Oc2ccccc2)cc1)CCc1ccc(C(=O)O)cc1`, the IC50 in data set [1] turned out to be 3 nM; in data set [2], 80 nM.

Turning to `CN(CCCN(C)Cc1ccc(S(N)(=O)=O)cc1)CC(=O)Nc1ccc(Oc2ccccc2)cc1`, the figures for the IC50 in data set [1] and in data set [2] were 33 nM and over 1000 nM, respectively.

On to `CN(Cc1ccc(C(=O)O)cc1)C1CCN(CC(=O)Nc2ccc(Oc3ccccc3)cc2)CC1`, for which the values for the IC50 in data set [1] and in data set [2] were 490 nM and 260 nM, respectively.

Take `CN(CCCN(C)Cc1ccc(C(=O)O)cc1[N+](=O)[O-])CC(=O)Nc1ccc(Oc2ccccc2)cc1`: the IC50 in data set [1] turned out to be 15 nM; in data set [2], 290 nM.

Take `CN(CCCN(C)Cc1ccc(C(=O)O)c(F)c1)CC(=O)Nc1ccc(Oc2ccccc2)cc1`: the results for the IC50 in data set [1] and in data set [2] were 6 nM and 340 nM, respectively.

As to `CN(CCCN(C)Cc1ccc(C(=O)O)c(Br)c1)CC(=O)Nc1ccc(Oc2ccccc2)cc1`, the 50% inhibitory concentration (IC50) in data set [1] is 10 nM; in data set [2] it was 360 nM.

On to `O=C(CN1CCCN(Cc2ccc(C(=O)O)cc2)CC1)Nc1ccc(Oc2ccccc2)cc1`, for which the IC50 turned out to be 70 nM in data set [1] and 180 nM in data set [2].

By half-life is commonly meant how long it takes for the measured level to halve. High values mean slow loss, low ones fast loss. In general, clearance refers to the volume of plasma or blood freed of the substance per unit of time. Lower therefore signals a low capacity for elimination. The bioavailability is the share of a dose that reaches the circulation, judged against a reference dose that is usually intravenous. Read a low bioavailability as little systemic uptake. In data set [3], `CN(CC(=O)Nc1ccc(Oc2ccccc2)cc1)C[C@H]1CCCN1Cc1ccc(C(=O)O)cc1` had a half-life of 2.6 h. Moreover, the clearance in data set [4] amounted to 28 mL/min/kg. The bioavailability in data set [5] was determined as 45%. The IC50 in data set [1] worked out at 7 nM; in data set [2] it was 30 nM.

`CN(CCCN(C)Cc1ccc(C(=O)O)cc1)CC(=O)Nc1ccc(Oc2ccc(F)cc2)cc1`: the values for the IC50 in data set [1] and in data set [2] were 6 nM and 120 nM, respectively.

As for `CN(CCCN(C)Cc1ccccc1)CC(=O)Nc1ccc(Oc2ccccc2)cc1`, the remaining at 1 h in data set [6] was under 33%. Also, the half-maximal inhibitory concentration (IC50) in data set [1] amounted to 90 nM; in data set [2] it was 350 nM.

With `CN(CCCC(=O)O)CCCN(C)CC(=O)Nc1ccc(Oc2ccccc2)cc1`, the half-maximal inhibitory concentration (IC50) was found to be 110 nM in data set [1] and 1500 nM in data set [2].

As for `CN(CCCCC(=O)O)CCCN(C)CC(=O)Nc1ccc(Oc2ccccc2)cc1`, the concentration for half-maximal inhibition (IC50) in data set [1] is 18 nM; in data set [2] it was 230 nM.

For `CN(CCCN(C)Cc1ccc(C(=O)O)cc1)CC(=O)Nc1ccc(Oc2ccccc2)cc1`, the remaining at 1 h in data set [6] is over 90%. The same compound gave a half-life in data set [3] of 0.9 h. In data set [4], this compound returned a clearance of 38 mL/min/kg. Besides, the bioavailability in data set [5] stood at 45%. Moreover, the values for the IC50 in data set [1] and in data set [2] were 6 nM and 120 nM, respectively.

In the case of `CN(CCCN(C)Cc1ccc(C(=O)O)cc1)CC(=O)Nc1ccc(Oc2ccccc2F)cc1`, the half-maximal inhibitory concentration (IC50) in data set [1] was 16 nM; in data set [2], 230 nM.

As to `CN(C)CCCN(C)CC(=O)Nc1ccc(Oc2ccccc2)cc1`, the remaining at 1 h in data set [6] was under 33%. Moreover, the IC50 is 160 nM in data set [1] and 135 nM in data set [2].

`CN(CCCNCC(=O)Nc1ccc(Oc2ccccc2)cc1)Cc1ccc(C(=O)O)cc1`: the values for the IC50 in data set [1] and in data set [2] were 330 nM and over 1000 nM, respectively.

`CN(CCCNCc1ccc(C(=O)O)cc1)CC(=O)Nc1ccc(Oc2ccccc2)cc1`: the figures for the half-inhibitory concentration (IC50) in data set [1] and in data set [2] were 19 nM and 420 nM, respectively.

On to `CN(CC(=O)Nc1ccc(Oc2ccccc2)cc1)C1CCCN(Cc2ccc(C(=O)O)cc2)CC1` (stereo not given), for which the half-maximal inhibitory concentration (IC50) in data set [1] stood at 160 nM; in data set [2], 380 nM.

In the case of `CN(CCN(C)Cc1ccc(C(=O)O)cc1)CC(=O)Nc1ccc(Oc2ccccc2)cc1`, the IC50 came to 15 nM in data set [1] and 140 nM in data set [2].

Consider `CN(CCCN(C)Cc1ccc(C(=O)O)o1)CC(=O)Nc1ccc(Oc2ccccc2)cc1`, for which the IC50 in data set [1] came to 28 nM; in data set [2], 440 nM.

For `O=C(CN1CCN(Cc2ccc(C(=O)O)cc2)CC1)Nc1ccc(Oc2ccccc2)cc1`, the values for the IC50 in data set [1] and in data set [2] were 1000 nM and over 1000 nM, respectively.

Turning to `CN(CCCN(C)Cc1ccc(C(=O)O)cc1)CC(=O)Nc1ccc(Cc2ccccc2)cc1`, the IC50 in data set [1] worked out at 3 nM; in data set [2] it was 70 nM.

For `CN(CC(=O)Nc1ccc(Oc2ccccc2)cc1)C[C@@H]1CCCN1Cc1ccc(C(=O)O)cc1`, the IC50 in data set [1] was 100 nM; in data set [2] it was 200 nM.

As to `O=C(CN1CC2CC1CN2Cc1ccc(C(=O)O)cc1)Nc1ccc(Oc2ccccc2)cc1` (stereo not given), the IC50 stood at 44 nM in data set [1] and 240 nM in data set [2].

Turning to `CN(CCCN(C)Cc1ccc(-c2nnn[nH]2)cc1)CC(=O)Nc1ccc(Oc2ccccc2)cc1`, the results for the IC50 in data set [1] and in data set [2] were 4 nM and 250 nM, respectively.

Regarding `CN(Cc1ccc(C(=O)O)cc1)CC1CCCCN1CC(=O)Nc1ccc(Oc2ccccc2)cc1` (stereo in doubt; 4n), the values for the 50% inhibitory concentration (IC50) in data set [1] and in data set [2] were 17 nM and 100 nM, respectively.

Take `CN(Cc1ccc(C(=O)O)cc1)CC1CCCCN1CC(=O)Nc1ccc(Oc2ccccc2)cc1` (stereo in doubt; 4o): the IC50 in data set [1] came out at 16 nM; in data set [2] it was 60 nM.

As to `CN(Cc1ccc(C(=O)O)cc1)CC1CCCN1CC(=O)Nc1ccc(Oc2ccccc2)cc1` (stereo in doubt; 4r), the 50% inhibitory concentration (IC50) in data set [1] was 26 nM; in data set [7], 60 nM.

As for `CN(Cc1ccc(C(=O)O)cc1)CC1CCCN1CC(=O)Nc1ccc(Oc2ccccc2)cc1` (stereo in doubt; 4s), the concentration for half-maximal inhibition (IC50) turned out to be 17 nM in data set [1] and 60 nM in data set [2].

Consider `CN(CC(=O)Nc1ccc(Oc2ccccc2)cc1)C1CCN(Cc2ccc(C(=O)O)cc2)C1` (stereo in doubt; 4t), for which the IC50 in data set [1] worked out at 120 nM; in data set [2], 180 nM.

For `CN(CC(=O)Nc1ccc(Oc2ccccc2)cc1)C1CCN(Cc2ccc(C(=O)O)cc2)C1` (stereo in doubt; 4u), the values for the IC50 in data set [1] and in data set [2] were 57 nM and 220 nM, respectively.

(Values after ChEMBL document CHEMBL1155105, “Synthesis of N-alkyl glycine amides as potent inhibitors of leukotriene A4 hydrolase” (Bioorg Med Chem Lett, 2008).)
